Reference: patent US20150307520A1, “NOVEL HETEROARYL AND HETEROCYCLE COMPOUNDS, COMPOSITIONS AND METHODS THEREOF” (HUTCHISON MEDIPHARMA LIMITED, priority 2012, published 2015)
Values belong to the compound of their own block, whether it stands above or below them.

What was measured:
Assay type in all cases: biochemical
[1] = target: p110β/p85α (Homo sapiens, UniProt P42338); test: Transcreener KINASE Assay, kinase inhibition of p110β/p85α; conditions: for PI3Kβ IH % @ 1 uM: 1 uM test compound; for IC50: read-out: PI3Kβ IC50
How it was run: (§1)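 ADP production was read by fluorescence polarization immunoassay (60 min detection step) after an 80 min room-temperature reaction of p110/p85α enzyme, compound in 2% DMSO, and PIP2/ATP solution (30 uM/10 uM as added) in HEPES buffer with MgCl2 and DTT. IC50s came from inhibition versus the DMSO control.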

[2] = target: p110δ/p85α (Homo sapiens, UniProt O00329); test: Transcreener KINASE Assay, kinase inhibition of p110δ/p85α; conditions: for PI3Kδ IH % @ 1 uM: 1 uM test compound; for IC50: read-out: PI3Kδ IC50
How it was run: as §1

[3] = target: p110γ (Homo sapiens, UniProt P48736); test: Transcreener KINASE Assay, kinase inhibition of p110γ; conditions: for PI3Kγ IH % @ 1 uM: 1 uM test compound; for IC50: read-out: PI3Kγ IC50
How it was run: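 Recombinant PI3K isoform complexes were tested in a two-step endpoint ADP-detection assay. Kinase reaction ran 80 min at room temperature, followed by 60 min with ADP detection mix. Far-red competitive fluorescence polarization immunoassay read-out; IC50s fitted from the FP data.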

p110δ/p85α, sequence (O00329 whole entry): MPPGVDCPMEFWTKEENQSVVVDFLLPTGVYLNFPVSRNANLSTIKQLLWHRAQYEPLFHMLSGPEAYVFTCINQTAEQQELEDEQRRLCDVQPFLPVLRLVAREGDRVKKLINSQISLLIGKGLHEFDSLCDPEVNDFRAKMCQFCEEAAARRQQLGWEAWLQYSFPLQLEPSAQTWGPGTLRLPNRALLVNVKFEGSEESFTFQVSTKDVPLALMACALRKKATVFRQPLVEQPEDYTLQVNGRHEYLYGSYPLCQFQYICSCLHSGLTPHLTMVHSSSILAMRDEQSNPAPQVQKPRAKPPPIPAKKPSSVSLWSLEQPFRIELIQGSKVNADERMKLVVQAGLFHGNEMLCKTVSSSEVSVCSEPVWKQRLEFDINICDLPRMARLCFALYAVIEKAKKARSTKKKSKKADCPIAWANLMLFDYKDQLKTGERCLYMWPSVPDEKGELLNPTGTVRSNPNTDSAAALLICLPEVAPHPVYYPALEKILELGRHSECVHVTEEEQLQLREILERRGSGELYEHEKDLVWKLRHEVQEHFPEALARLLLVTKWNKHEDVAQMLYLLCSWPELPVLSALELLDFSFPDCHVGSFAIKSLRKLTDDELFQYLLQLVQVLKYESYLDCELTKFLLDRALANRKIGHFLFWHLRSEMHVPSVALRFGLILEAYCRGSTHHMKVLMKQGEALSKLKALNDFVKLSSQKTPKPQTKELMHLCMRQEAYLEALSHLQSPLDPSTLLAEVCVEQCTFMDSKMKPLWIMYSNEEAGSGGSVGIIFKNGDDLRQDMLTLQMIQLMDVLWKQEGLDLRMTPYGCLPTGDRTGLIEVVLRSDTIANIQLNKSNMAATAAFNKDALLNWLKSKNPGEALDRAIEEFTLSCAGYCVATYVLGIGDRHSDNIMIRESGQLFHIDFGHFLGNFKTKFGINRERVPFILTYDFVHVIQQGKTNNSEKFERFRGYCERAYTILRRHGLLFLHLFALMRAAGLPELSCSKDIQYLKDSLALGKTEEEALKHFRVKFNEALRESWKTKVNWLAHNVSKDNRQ
p110δ/p85α, sequence (P27986 whole entry partner): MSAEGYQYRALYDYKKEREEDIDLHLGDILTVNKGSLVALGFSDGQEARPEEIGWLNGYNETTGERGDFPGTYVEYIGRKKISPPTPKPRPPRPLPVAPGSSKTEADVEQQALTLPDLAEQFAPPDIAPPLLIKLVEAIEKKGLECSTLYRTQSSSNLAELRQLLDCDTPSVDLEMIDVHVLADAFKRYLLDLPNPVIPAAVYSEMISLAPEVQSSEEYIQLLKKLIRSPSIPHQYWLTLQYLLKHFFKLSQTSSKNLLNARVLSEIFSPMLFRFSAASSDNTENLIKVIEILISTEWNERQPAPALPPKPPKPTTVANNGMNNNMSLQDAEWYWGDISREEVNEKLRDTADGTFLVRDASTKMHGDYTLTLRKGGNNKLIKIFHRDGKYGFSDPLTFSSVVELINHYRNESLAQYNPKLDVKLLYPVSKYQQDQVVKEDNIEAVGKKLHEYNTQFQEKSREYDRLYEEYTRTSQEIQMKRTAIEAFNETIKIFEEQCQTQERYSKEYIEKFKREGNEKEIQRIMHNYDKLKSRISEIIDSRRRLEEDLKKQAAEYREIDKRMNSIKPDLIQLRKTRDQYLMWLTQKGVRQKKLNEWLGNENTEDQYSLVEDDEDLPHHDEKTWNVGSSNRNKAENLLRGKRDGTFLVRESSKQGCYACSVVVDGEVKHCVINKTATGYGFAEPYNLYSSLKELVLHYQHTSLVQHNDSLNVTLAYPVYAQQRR
p110β/p85α, sequence (P42338 whole entry): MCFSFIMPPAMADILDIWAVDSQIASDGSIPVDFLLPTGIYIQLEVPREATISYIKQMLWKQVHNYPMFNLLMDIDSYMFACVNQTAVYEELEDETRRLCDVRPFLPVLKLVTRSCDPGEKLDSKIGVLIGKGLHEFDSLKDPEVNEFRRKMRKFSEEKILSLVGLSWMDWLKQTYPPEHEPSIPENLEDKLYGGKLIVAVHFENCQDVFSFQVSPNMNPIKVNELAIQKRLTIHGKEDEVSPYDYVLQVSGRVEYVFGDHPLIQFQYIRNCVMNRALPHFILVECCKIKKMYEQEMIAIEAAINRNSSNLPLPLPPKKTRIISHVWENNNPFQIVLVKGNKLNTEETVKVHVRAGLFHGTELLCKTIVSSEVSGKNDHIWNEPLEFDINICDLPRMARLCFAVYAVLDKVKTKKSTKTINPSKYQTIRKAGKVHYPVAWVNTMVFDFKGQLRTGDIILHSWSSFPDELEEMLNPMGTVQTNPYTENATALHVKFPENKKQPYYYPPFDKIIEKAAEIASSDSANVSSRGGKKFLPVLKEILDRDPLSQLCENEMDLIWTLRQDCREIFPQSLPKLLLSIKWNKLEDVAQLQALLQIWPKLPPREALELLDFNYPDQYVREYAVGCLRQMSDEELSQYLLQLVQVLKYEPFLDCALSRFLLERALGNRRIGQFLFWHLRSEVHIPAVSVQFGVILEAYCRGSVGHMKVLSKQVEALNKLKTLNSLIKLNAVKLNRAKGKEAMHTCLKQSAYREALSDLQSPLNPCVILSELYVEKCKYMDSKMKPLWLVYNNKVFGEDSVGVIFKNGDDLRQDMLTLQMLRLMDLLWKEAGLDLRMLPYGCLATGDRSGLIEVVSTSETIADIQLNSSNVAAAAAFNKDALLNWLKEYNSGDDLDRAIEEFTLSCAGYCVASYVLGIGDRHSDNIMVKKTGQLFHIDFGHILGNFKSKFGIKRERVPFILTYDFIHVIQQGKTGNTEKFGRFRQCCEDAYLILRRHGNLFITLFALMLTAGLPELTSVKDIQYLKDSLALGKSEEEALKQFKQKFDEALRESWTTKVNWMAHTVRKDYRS
p110β/p85α, sequence (P27986 2-724 partner): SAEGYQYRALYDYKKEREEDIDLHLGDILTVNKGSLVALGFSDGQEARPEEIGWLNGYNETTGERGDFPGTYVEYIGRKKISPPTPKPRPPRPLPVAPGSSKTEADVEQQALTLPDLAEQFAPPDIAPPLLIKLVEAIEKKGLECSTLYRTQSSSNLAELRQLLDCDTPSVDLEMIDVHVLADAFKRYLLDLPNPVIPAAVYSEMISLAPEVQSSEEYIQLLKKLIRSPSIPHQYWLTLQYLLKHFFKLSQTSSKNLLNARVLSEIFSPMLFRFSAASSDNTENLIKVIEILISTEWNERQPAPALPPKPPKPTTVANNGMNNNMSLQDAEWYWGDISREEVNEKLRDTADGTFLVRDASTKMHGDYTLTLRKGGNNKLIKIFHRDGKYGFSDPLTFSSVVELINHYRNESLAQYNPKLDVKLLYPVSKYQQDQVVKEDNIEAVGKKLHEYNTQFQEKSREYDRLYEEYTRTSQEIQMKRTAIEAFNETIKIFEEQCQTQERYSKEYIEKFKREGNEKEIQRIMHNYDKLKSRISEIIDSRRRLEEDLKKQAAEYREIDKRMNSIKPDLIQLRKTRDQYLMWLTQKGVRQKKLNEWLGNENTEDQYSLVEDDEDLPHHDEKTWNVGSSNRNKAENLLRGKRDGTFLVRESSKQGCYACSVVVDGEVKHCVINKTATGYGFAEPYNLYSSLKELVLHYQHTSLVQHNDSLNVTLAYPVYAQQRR
p110γ, sequence (P48736 whole entry, canonical isoform): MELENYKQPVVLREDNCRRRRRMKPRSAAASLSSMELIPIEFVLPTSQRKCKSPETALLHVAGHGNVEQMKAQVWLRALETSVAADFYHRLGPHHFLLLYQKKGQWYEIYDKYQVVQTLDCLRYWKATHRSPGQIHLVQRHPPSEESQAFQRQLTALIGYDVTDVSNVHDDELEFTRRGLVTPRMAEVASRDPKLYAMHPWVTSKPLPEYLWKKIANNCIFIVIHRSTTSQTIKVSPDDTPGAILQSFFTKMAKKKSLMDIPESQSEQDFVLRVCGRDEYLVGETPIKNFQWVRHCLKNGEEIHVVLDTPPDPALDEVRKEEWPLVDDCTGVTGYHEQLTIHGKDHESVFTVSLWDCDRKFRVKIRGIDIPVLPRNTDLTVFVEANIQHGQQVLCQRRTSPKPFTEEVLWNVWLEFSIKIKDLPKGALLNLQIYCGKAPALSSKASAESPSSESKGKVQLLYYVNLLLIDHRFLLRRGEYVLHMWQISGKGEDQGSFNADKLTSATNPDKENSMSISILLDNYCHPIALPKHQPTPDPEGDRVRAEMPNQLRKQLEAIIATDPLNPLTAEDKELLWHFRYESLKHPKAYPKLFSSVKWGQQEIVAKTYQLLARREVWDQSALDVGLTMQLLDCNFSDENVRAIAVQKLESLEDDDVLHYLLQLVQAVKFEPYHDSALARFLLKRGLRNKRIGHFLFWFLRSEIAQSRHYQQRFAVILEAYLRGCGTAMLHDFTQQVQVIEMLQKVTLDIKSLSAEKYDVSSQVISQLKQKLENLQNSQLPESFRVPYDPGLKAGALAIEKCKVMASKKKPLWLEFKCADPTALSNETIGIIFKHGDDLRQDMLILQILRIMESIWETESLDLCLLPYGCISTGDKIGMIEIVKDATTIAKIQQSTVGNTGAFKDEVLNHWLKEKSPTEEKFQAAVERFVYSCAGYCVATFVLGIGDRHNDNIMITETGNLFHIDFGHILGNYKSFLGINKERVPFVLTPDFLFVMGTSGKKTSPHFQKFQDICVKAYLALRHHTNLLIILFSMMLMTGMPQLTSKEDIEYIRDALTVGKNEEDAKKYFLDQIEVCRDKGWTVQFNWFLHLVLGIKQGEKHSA

PI3Kβ IH % @ 1 uM [1]: 1.5% | PI3Kδ IH % @ 1 uM [2]: 82.3% | IC50 [2]: 0.211 µM | PI3Kγ IH % @ 1 uM [3]: 7.6%
SMILES: Nc1ncc(C(F)(F)F)c(N2CCC[C@H]2c2nn3ccc(CO)c3c(=O)n2-c2ccccc2)n1 [Compound 178]

PI3Kβ IH % @ 1 uM [1]: 51.5% | PI3Kδ IH % @ 1 uM [2]: >100% | IC50 [2]: 0.002 µM | PI3Kγ IH % @ 1 uM [3]: 97.9% | IC50 [3]: 0.015 µM
SMILES: N#Cc1c[nH]c2ncnc(N3CCC[C@H]3c3nn4ccc(CO)c4c(=O)n3-c3ccccc3)c12 [Compound 179]

PI3Kβ IH % @ 1 uM [1]: 45.9% | PI3Kδ IH % @ 1 uM [2]: >100% | IC50 [2]: 0.006 µM | PI3Kγ IH % @ 1 uM [3]: 99.0%
SMILES: CC(=O)c1c[nH]c2ncnc(N3CC[C@H]3c3nn4ccc(Cl)c4c(=O)n3-c3ccccc3)c12 [Compound 185, (S)-2-(1-(5-acetyl-7H-pyrrolo[2,3-d]pyrimidin-4-yl)azetidin-2-yl)-5-chloro-3-phenylpyrrolo[2,1-f][1,2,4]triazin-4(3H)-one]

PI3Kβ IH % @ 1 uM [1]: 52.9% | PI3Kδ IH % @ 1 uM [2]: 92.0% | IC50 [2]: 0.003 µM | PI3Kγ IH % @ 1 uM [3]: 84.1%
SMILES: O=c1c2c(F)ccn2nc([C@@H]2CCCN2c2ncnc3[nH]cnc23)n1-c1ccccc1 [Compound 190]

PI3Kβ IH % @ 1 uM [1]: 65.3% | PI3Kδ IH % @ 1 uM [2]: 98.5% | IC50 [2]: 0.004 µM | PI3Kγ IH % @ 1 uM [3]: >100% | IC50 [3]: 0.018 µM
SMILES: CS(=O)(=O)c1cccc(-n2c([C@@H]3CCCN3c3ncnc4[nH]cc(C#N)c34)nn3ccc(Cl)c3c2=O)c1 [Compound 192]

PI3Kβ IH % @ 1 uM [1]: 29.5% | PI3Kδ IH % @ 1 uM [2]: >100% | IC50 [2]: 0.023 µM | PI3Kγ IH % @ 1 uM [3]: 75.1% | IC50 [3]: 0.15 µM
SMILES: N#Cc1c(N)ncnc1N1CC[C@H]1c1nn2ccc(Br)c2c(=O)n1-c1ccccc1 [Compound 194]

PI3Kβ IH % @ 1 uM [1]: 32.3% | PI3Kδ IH % @ 1 uM [2]: 97.1% | IC50 [2]: 0.069 µM | PI3Kγ IH % @ 1 uM [3]: >100% | IC50 [3]: 0.065 µM
SMILES: C[S+]([O-])c1c[nH]c2ncnc(N3CC[C@H]3c3nn4ccc(Cl)c4c(=O)n3-c3ccccc3)c12 (stereo partly drawn) [Compound 196]

PI3Kβ IH % @ 1 uM [1]: 28.2% | PI3Kδ IH % @ 1 uM [2]: 90.9% | IC50 [2]: 0.196 µM | PI3Kγ IH % @ 1 uM [3]: 93.4% | IC50 [3]: 0.19 µM
SMILES: CNc1ncnc(N2CCC[C@H]2c2nn3ccc(Cl)c3c(=O)n2-c2ccccc2)n1 [Compound 200]

PI3Kβ IH % @ 1 uM [1]: 25.3% | PI3Kδ IH % @ 1 uM [2]: >100% | IC50 [2]: 0.019 µM | PI3Kγ IH % @ 1 uM [3]: >100% | IC50 [3]: 0.049 µM
SMILES: Cc1nc(N)nc(N2CCC[C@H]2c2nn3ccc(Cl)c3c(=O)n2-c2ccccc2)n1 [Compound 201]

PI3Kβ IH % @ 1 uM [1]: 23.3% | PI3Kδ IH % @ 1 uM [2]: 94.6% | IC50 [2]: 0.1 µM | PI3Kγ IH % @ 1 uM [3]: 65.3%
SMILES: O=c1c2c(Cl)ccn2nc([C@@H]2CCCCN2c2ncnc3[nH]cnc23)n1-c1ccccc1 [Compound 203]

PI3Kβ IH % @ 1 uM [1]: 21.6% | PI3Kδ IH % @ 1 uM [2]: 76.1% | IC50 [2]: 0.074 µM | PI3Kγ IH % @ 1 uM [3]: 76.1% | IC50 [3]: 0.229 µM
SMILES: Cc1nc(N)nc(N2CC[C@H]2c2nn3ccc(Cl)c3c(=O)n2-c2ccccc2)n1 [Compound 205]

PI3Kβ IH % @ 1 uM [1]: 80.4% | IC50 [1]: 0.298 µM | PI3Kδ IH % @ 1 uM [2]: >100% | IC50 [2]: 0.001 µM | PI3Kγ IH % @ 1 uM [3]: >100%
SMILES: N#Cc1cnc(N)nc1N1CCC[C@H]1c1nn2ccc(Cl)c2c(=O)n1-c1ccccc1 [Compound 207]

Continued, compound first:

SMILES: CC(Nc1ncnc2[nH]cc(-c3ccc(N)nc3)c12)c1cc2ncc(Cl)n2c(=O)n1-c1ccccc1 (stereo not drawn) [Compound 174]
PI3Kβ IH % @ 1 uM [1]: 97.7% | IC50 [1]: 0.023 µM | PI3Kδ IH % @ 1 uM [2]: >100% | IC50 [2]: 0.001 µM | PI3Kγ IH % @ 1 uM [3]: 94.0% | IC50 [3]: 0.031 µM

SMILES: COc1ncc(-c2c[nH]c3ncnc(NC(C)c4cc5ncc(Cl)n5c(=O)n4-c4ccccc4)c23)cn1 (stereo not drawn) [Compound 175]
PI3Kβ IH % @ 1 uM [1]: 90.9% | IC50 [1]: 0.078 µM | PI3Kδ IH % @ 1 uM [2]: 99.5% | IC50 [2]: 0.001 µM | PI3Kγ IH % @ 1 uM [3]: 87.6% | IC50 [3]: 0.105 µM

SMILES: Nc1ccc(-c2c[nH]c3ncnc(N4CCOC[C@H]4c4nn5ccc(Cl)c5c(=O)n4-c4ccccc4)c23)cn1 [Compound 176]
PI3Kβ IH % @ 1 uM [1]: 16.8% | PI3Kδ IH % @ 1 uM [2]: 97.1% | IC50 [2]: 0.005 µM | PI3Kγ IH % @ 1 uM [3]: 58.3%

SMILES: O=c1c2c(CO)ccn2nc([C@@H]2CCCN2c2ncnc3[nH]cnc23)n1-c1ccccc1 [Compound 177, (S)-2-(1-(9H-purin-6-yl)pyrrolidin-2-yl)-5-(hydroxymethyl)-3-phenylpyrrolo[2,1-f][1,2,4]triazin-4(3H)-one]
PI3Kβ IH % @ 1 uM [1]: 17.0% | PI3Kδ IH % @ 1 uM [2]: 97.1% | IC50 [2]: 0.03 µM | PI3Kγ IH % @ 1 uM [3]: 79.8% | IC50 [3]: 0.089 µM

SMILES: Nc1ncc(-c2c[nH]c3ncnc(N4CC[C@H]4c4nn5ccc(F)c5c(=O)n4-c4ccccc4)c23)cn1 [Compound 180, (S)-2-(1-(5-(2-aminopyrimidin-5-yl)-7H-pyrrolo[2,3-d]pyrimidin-4-yl)azetidin-2-yl)-5-fluoro-3-phenylpyrrolo[2,1-f][1,2,4]triazin-4(3H)-one]
PI3Kβ IH % @ 1 uM [1]: 92.8% | IC50 [1]: 0.041 µM | PI3Kδ IH % @ 1 uM [2]: >100% | IC50 [2]: < 0.00046 µM | PI3Kγ IH % @ 1 uM [3]: 98.7% | IC50 [3]: 0.002 µM

SMILES: COc1ncc(-c2c[nH]c3ncnc(N4CC[C@H]4c4nn5ccc(F)c5c(=O)n4-c4ccccc4)c23)cn1 [Compound 181]
PI3Kβ IH % @ 1 uM [1]: 95.9% | IC50 [1]: 0.023 µM | PI3Kδ IH % @ 1 uM [2]: >100% | PI3Kγ IH % @ 1 uM [3]: >100% | IC50 [3]: 0.004 µM

SMILES: COc1ccc(-c2c[nH]c3ncnc(N4CC[C@H]4c4nn5ccc(F)c5c(=O)n4-c4ccccc4)c23)cn1 [Compound 182]
PI3Kβ IH % @ 1 uM [1]: 93.3% | IC50 [1]: 0.062 µM | PI3Kδ IH % @ 1 uM [2]: >100% | PI3Kγ IH % @ 1 uM [3]: 94.9% | IC50 [3]: 0.007 µM

SMILES: Nc1ccc(-c2c[nH]c3ncnc(N4CC[C@H]4c4nn5ccc(F)c5c(=O)n4-c4ccccc4)c23)cn1 [Compound 183]
PI3Kβ IH % @ 1 uM [1]: 77.2% | IC50 [1]: 0.331 µM | PI3Kδ IH % @ 1 uM [2]: >100% | PI3Kγ IH % @ 1 uM [3]: >100% | IC50 [3]: 0.005 µM

SMILES: N#Cc1ncc(-c2c[nH]c3ncnc(N4CC[C@H]4c4nn5ccc(F)c5c(=O)n4-c4ccccc4)c23)cn1 [Compound 184]
PI3Kβ IH % @ 1 uM [1]: >100% | IC50 [1]: 0.038 µM | PI3Kδ IH % @ 1 uM [2]: >100% | IC50 [2]: 0.0005 µM | PI3Kγ IH % @ 1 uM [3]: 98.4% | IC50 [3]: 0.008 µM

SMILES: O=c1c2c(F)ccn2nc([C@@H]2CCCN2c2ncnc3[nH]cnc23)n1-c1cccc(F)c1 [Compound 191]
PI3Kβ IH % @ 1 uM [1]: 56.8% | PI3Kδ IH % @ 1 uM [2]: >100% | IC50 [2]: 0.003 µM | PI3Kγ IH % @ 1 uM [3]: >100% | IC50 [3]: 0.032 µM

SMILES: CS(=O)(=O)c1cccc(-n2c([C@@H]3CCCN3c3ncnc4[nH]cnc34)nn3ccc(Cl)c3c2=O)c1 [Compound 193]
PI3Kβ IH % @ 1 uM [1]: 31.5% | PI3Kδ IH % @ 1 uM [2]: >100% | IC50 [2]: 0.023 µM | PI3Kγ IH % @ 1 uM [3]: 93.7% | IC50 [3]: 0.121 µM

SMILES: C[S+]([O-])c1c[nH]c2ncnc(N3CC[C@H]3c3nn4ccc(Cl)c4c(=O)n3-c3ccc(F)cc3)c12 (stereo partly drawn) [Compound 199]
PI3Kβ IH % @ 1 uM [1]: 17.1% | PI3Kδ IH % @ 1 uM [2]: 59.5% | IC50 [2]: 2 µM | PI3Kγ IH % @ 1 uM [3]: 94.6% | IC50 [3]: 0.034 µM

SMILES: C[S+]([O-])c1c[nH]c2ncnc(N3CC[C@H]3c3nn4ccc(F)c4c(=O)n3-c3ccccc3)c12 (stereo partly drawn) [Compound 204]
PI3Kβ IH % @ 1 uM [1]: 28.9% | PI3Kδ IH % @ 1 uM [2]: 85.1% | IC50 [2]: 0.109 µM | PI3Kγ IH % @ 1 uM [3]: 84.2% | IC50 [3]: 0.25 µM

SMILES: CC(=O)c1c[nH]c2ncnc(N3CCC[C@H]3c3nn4ccc(Cl)c4c(=O)n3-c3ccc(F)cc3)c12 [Compound 208]
PI3Kβ IH % @ 1 uM [1]: 81.7% | IC50 [1]: 0.089 µM | PI3Kδ IH % @ 1 uM [2]: 97.4% | IC50 [2]: 0.004 µM | PI3Kγ IH % @ 1 uM [3]: 92.2% | IC50 [3]: 0.003 µM

SMILES: C[S+]([O-])c1c[nH]c2ncnc(N3CCC[C@H]3c3nn4ccc(Cl)c4c(=O)n3-c3ccc(F)cc3)c12 (stereo partly drawn) [Compound 209]
PI3Kβ IH % @ 1 uM [1]: 53.5% | PI3Kδ IH % @ 1 uM [2]: 94.2% | IC50 [2]: 0.012 µM | PI3Kγ IH % @ 1 uM [3]: 89.6% | IC50 [3]: 0.03 µM
